Results published in patent US20240174684A1, “INHIBITORS OF cGAS ACTIVITY AS THERAPEUTIC AGENTS” (BELLBROOK LABS, LLC, priority 2021, published 2024).
Like-named read-outs stand apart in the source and are kept apart here.

Tests used:
[1] = target: cGAS (Homo sapiens, UniProt Q8N884); test: Transcreener cGAS enzymatic assay (FP); assay type: biochemical
Experimental: Structural, biochemical and biophysical analysis and selectivity profiling: Potency and MOA studies, including Mn^2+ sensitivity, were performed using the Transcreener cGAS enzymatic assay, which is manufactured at BellBrook Labs (Fitchburg, Wisconsin, USA). This homogenous cGAS enzymatic assay was developed with fluorescence polarization (FP) and time-resolved Forster resonance energy transfer (TR-FRET) readouts, as described in International Patent Publication WO 2020/142729, incorporated by reference herein in its entirety. Plates are read on a PHERAstar FSX multimode reader (BMG). The compounds of the disclosure were tested for inhibition of cGAS ([…]) using this cGAS enzymatic assay under standard conditions (100 μM ATP and GTP, 62.5 nM bp ISD, 60 minute reactions), high ATP and GTP (1 mM) to mimic physiological conditions, in the presence of 200 μM MnCl2, and with mouse cGAS under standard conditions.
The IC50 values for FP under standard and under physiological conditions were determined for several exemplary compounds of the invention. The relative activities for FP Standard IC50 are shown in Table 2 below, where A represents <50 nM; B represents 50-100 nM; C represents 100-200 nM; D represents 200 nM-1μM; and E represents 1-10 μM. For the relative activities for FP Physiological IC50, A′ represents <200 nM; B′ represents 200-500 nM; C′ represents 500 nM-1μM; D′ represents 1-5 μM; and E′ represents >5 μM.

[2] = tested on: MDCK cells expressing human MDR1 (P-glycoprotein); test: MDCK-MDR1 permeability A→B; assay type: in vitro ADME, Canine
Experimental: ADME studies: Compound A and the compounds of the disclosure were tested for aqueous solubility (KSOL), metabolic stability (human and mouse […]) and permeability (Caco-2 and/or MDR1-MDCK cells) to provide an initial indication of oral bioavailability.
The favorable physicochemical properties are reflected in promising results in in vitro ADME tests. […] Metabolic stability, which was routinely measured with mouse and human hepatocytes, is outstanding, with t, greater than 2 hours for all of the compounds of the disclosure in which it has been measured. Cell permeability was measured using MDCK cells expressing human MDR1 (P-glycoprotein) to assess passive permeability as well as active transport out of the cell. […] Numerous compounds in Table 1 meet these permeability criteria, which is consistent with their design for TPSA <140 Å^2 and increased lipophilicity.
The MDCK-MDR1 permeability A ->B is shown in Table 2 below, where A represents 5-10 cm/s×10^−6; B represents 1-5 cm/s×10^−6; and C represents <1 cm/ss×10^−6. The metabolic stability half time, in both mouse and human hepatocytes, is also shown in Table 2 below, where A′ represents 100-200 minutes; B′ represents 200-300 minutes; and C′ represents >300 minutes.

[3] = tested on: IFNβ production in THP-1 cells; test: IFNβ ELISA in THP-1 cells; assay type: cell-based, human; details: Homo sapiens; THP-1 cells
Excerpt: Cellular assays: The human monocyte cell line THP-1 and human primary PBMCs were used to evaluate the cellular activity of compounds with good biochemical potency. These cells produce a robust cGAS/STING-dependent type I IFN response when stimulated with dsDNA and other pathogen-associated molecular patterns, which was detected using a standard ELISA for IFNβ (R&D Systems). The TBK1 inhibitor, BX-795, which acts downstream of cGAS/STING, was used as a probe.
CETSA was also used to confirm that the compounds are binding to cGAS in cells; THP-1 cells are used for this analysis. Compounds were tested in dose response mode by incubating with cells for 1.5 hours at 37° C., followed by pelleting and re-suspending in PBS, heating to 51.5° C. for 3 min and cooling to room temp. Cells were then lysed, debris, including denatured cGAS, was pelleted and the supernatant was analyzed for soluble cGAS by Western Blot using anti-cGAS primary Ab (Cell Signaling). Band intensity was analyzed using Image J software. Stimulation with cGAMP directly activates STING, circumventing cGAS; this was used to determine if compounds had effects on downstream components of cGAS/STING signaling. The IFN-6 ELISA was used as the primary measure of cellular potency and selectivity (Table 3) and used the reporter gene assays for assessing off-target activity with other pattern recognition receptors.
The ICso values for IFNB ELISA stimulated with THP-1, PBMC, DNA, and cGAMP were determined for several exemplary compounds of the invention, and are provided in Table 3 where A represents <1 μM; B represents 1-2.5 μM; C represents 2.5-10 μM; D represents 10-20 μM; and E represents >20 μM.

[4] = high ATP and GTP (1 mM) to mimic physiological conditions, read-out: IC50 FP Physiological
[5] = standard conditions: 100 μM ATP and GTP, 62.5 nM bp ISD, 60 minute reactions, read-out: IC50 FP Standard

Chain of cGAS (Q8N884 whole entry): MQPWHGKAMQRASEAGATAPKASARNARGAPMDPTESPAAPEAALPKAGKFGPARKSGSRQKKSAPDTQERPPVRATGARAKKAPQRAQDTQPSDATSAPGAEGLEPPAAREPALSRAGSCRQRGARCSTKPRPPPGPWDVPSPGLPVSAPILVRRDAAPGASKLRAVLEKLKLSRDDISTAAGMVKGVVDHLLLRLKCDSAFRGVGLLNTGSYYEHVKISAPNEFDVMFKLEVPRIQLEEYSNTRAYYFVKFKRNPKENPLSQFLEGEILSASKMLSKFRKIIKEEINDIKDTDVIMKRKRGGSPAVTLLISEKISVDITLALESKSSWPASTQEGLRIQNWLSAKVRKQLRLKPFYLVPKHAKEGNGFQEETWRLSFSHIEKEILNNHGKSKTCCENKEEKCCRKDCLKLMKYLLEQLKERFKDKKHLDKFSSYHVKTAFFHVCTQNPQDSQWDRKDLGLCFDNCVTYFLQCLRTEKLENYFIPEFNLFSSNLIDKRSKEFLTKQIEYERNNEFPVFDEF

IC50 [1, 4] [nM]	IC50 [1, 5] [nM]	MDCK-MDR Permeability A→B [2]	IC50 [3] [nM]	SMILES
1000 to 5000	200 to 1000			Cc1nc(N2C[C@@H](CC(=O)Nc3ccc(-c4ccccc4)nn3)C[C@H]2C(=O)O)c2oc3ccccc3c2n1 [Compound 64, (2S,4R)-1-(2-methylbenzofuro[3,2-d]pyrimidin-4-yl)-4-(2-oxo-2-((6-phenylpyridazin-3-yl)amino)ethyl)pyrrolidine-2-carboxylic acid]
1000 to 5000	100 to 200			Cc1nc(N2C[C@@H](CC(=O)Nc3ccc(N4CCOC4=O)cc3)C[C@H]2C(=O)O)c2oc3ccccc3c2n1 [Compound 52, (2S,4R)-1-(2-methylbenzofuro[3,2-d]pyrimidin-4-yl)-4-(2-oxo-2-((4-(2-oxooxazolidin-3-yl)phenyl)amino)ethyl)pyrrolidine-2-carboxylic acid]
1000 to 5000	200 to 1000		> 20000	Cc1nc(N2C[C@@H](CC(=O)Nc3ccc(N4CCC(O)CC4)cc3)C[C@H]2C(=O)O)c2oc3ccccc3c2n1 [Compound 53, (2S,4R)-4-(2-((4-(4-hydroxypiperidin-1-yl)phenyl)amino)-2-oxoethyl)-1-(2-methylbenzofuro[3,2-d]pyrimidin-4-yl)pyrrolidine-2-carboxylic acid]
500 to 1000	< 50			Cc1nc(N2C[C@@H](CC(=O)Nc3ccc(-c4cccc(CO)c4)cc3)C[C@H]2C(=O)O)c2oc3ccccc3c2n1 [Compound 59, (2S,4R)-4-(2-((3′-(hydroxymethyl)-[1,1′-biphenyl]-4-yl)amino)-2-oxoethyl)-1-(2-methylbenzofuro[3,2-d]pyrimidin-4-yl)pyrrolidine-2-carboxylic acid]
200 to 500	< 50			Cc1nc(N2C[C@@H](CC(=O)Nc3ccc(-c4ccc(CO)cc4)cc3)C[C@H]2C(=O)O)c2oc3ccccc3c2n1 [Compound 60, (28.4R)-4-(2-((4′-(hydroxymethyl)-[1,1′-biphenyl]-4-yl)amino)-2-oxoethyl)-1-(2-methylbenzofuro[3,2-d]pyrimidin-4-yl)pyrrolidine-2-carboxylic acid]
500 to 1000	50 to 100			Cc1nc(N2C[C@@H](CC(=O)Nc3cnc(-c4ccccc4)nc3)C[C@H]2C(=O)O)c2oc3ccccc3c2n1 [Compound 65, (2S,4R)-1-(2-methylbenzofuro[3,2-d]pyrimidin-4-yl)-4-(2-oxo-2-((2-phenylpyrimidin-5-yl)amino)ethyl)pyrrolidine-2-carboxylic acid]

Further lines, the compound ahead of its results:

SMILES	IC50 [1, 4] [nM]	IC50 [1, 5] [nM]	MDCK-MDR Permeability A→B [2]	IC50 [3] [nM]
Cc1nc(N2C[C@@H](CC(=O)Nc3ccc(-c4ccnc(O)c4)cc3)C[C@H]2C(=O)O)c2oc3ccccc3c2n1 [Compound 48, (2S,4R)-4-(2-((4-(2-hydroxypyridin-4-yl)phenyl)amino)-2-oxoethyl)-1-(2-methylbenzofuro[3,2-d]pyrimidin-4-yl)pyrrolidine-2-carboxylic acid]	500 to 1000	< 50		
Cc1nc(N2C[C@@H](CC(=O)Nc3ccc4cn[nH]c4c3)C[C@H]2C(=O)O)c2oc3ccccc3c2n1 [Compound 30, (28.4R)-4-(2-((1H-indazol-6-yl)amino)-2-oxoethyl)-1-(2-methylbenzofuro[3,2-d]pyrimidin-4-yl)pyrrolidine-2-carboxylic acid]	1000 to 5000	100 to 200	C (C represents <1 cm/ss×10^−6)	> 20000
Cc1nc(N2C[C@@H](CC(=O)Nc3ccc(-c4cn[nH]c4)cc3)C[C@H]2C(=O)O)c2oc3ccccc3c2n1 [Compound 10, (2S,4R)-4-(2-((4-(1H-pyrazol-4-yl)phenyl)amino)-2-oxoethyl)-1-(2-methylbenzofuro[3,2-d]pyrimidin-4-yl)pyrrolidine-2-carboxylic acid]	200 to 500	< 50	C (C represents <1 cm/ss×10^−6)	> 20000
COc1ccccc1NC(=O)C[C@H]1C[C@@H](C(=O)O)N(c2nc(C)nc3c2oc2ccccc23)C1 [Compound 14, (28.4R)-4-(2-((2-methoxyphenyl)amino)-2-oxoethyl)-1-(2-methylbenzofuro[3,2-d]pyrimidin-4-yl)pyrrolidine-2-carboxylic acid]	> 5000	1000 to 10000	C (C represents <1 cm/ss×10^−6)	> 20000
Cc1nc(N2C[C@@H](CC(=O)Nc3cccc(-c4c[nH]cn4)c3)C[C@H]2C(=O)O)c2oc3ccccc3c2n1 [Compound 49, (28,4R)-4-(2-((3-(1H-imidazol-4-yl)phenyl)amino)-2-oxoethyl)-1-(2-methylbenzofuro[3,2-d]pyrimidin-4-yl)pyrrolidine-2-carboxylic acid]	500 to 1000	100 to 200		> 20000
Cc1nc(N2C[C@@H](CC(=O)Nc3ccc4nc[nH]c4c3)C[C@H]2C(=O)O)c2oc3ccccc3c2n1 [Compound 29, (2S,4R)-4-(2-((1H-benzo[d]imidazol-6-yl)amino)-2-oxoethyl)-1-(2-methylbenzofuro[3,2-d]pyrimidin-4-yl)pyrrolidine-2-carboxylic acid]	500 to 1000	100 to 200	C (C represents <1 cm/ss×10^−6)	> 20000
Cc1nc(N2C[C@@H](CC(=O)Nc3ccc(-c4cccnn4)cc3)C[C@H]2C(=O)O)c2oc3ccccc3c2n1 [Compound 44, (2S,4R)-1-(2-methylbenzofuro[3,2-d]pyrimidin-4-yl)-4-(2-oxo-2-((4-(pyridazin-3-yl)phenyl)amino)ethyl)pyrrolidine-2-carboxylic acid]	200 to 500	< 50	C (C represents <1 cm/ss×10^−6)	> 20000
Cc1nc(N2C[C@@H](CC(=O)Nc3cccc(-c4cn[nH]c4)c3)C[C@H]2C(=O)O)c2oc3ccccc3c2n1 [Compound 11, (25,4R)-4-(2-((3-(1H-pyrazol-4-yl)phenyl)amino)-2-oxoethyl)-1-(2-methylbenzofuro[3,2-d]pyrimidin-4-yl)pyrrolidine-2-carboxylic acid]	200 to 500	50 to 100	C (C represents <1 cm/ss×10^−6)	> 20000
Cc1nc(N2C[C@@H](CC(=O)Nc3ccc(N4CCNCC4)cc3)C[C@H]2C(=O)O)c2oc3ccccc3c2n1 [Compound 8, (2S,4R)-1-(2-methylbenzofuro[3,2-d]pyrimidin-4-yl)-4-(2-oxo-2-((4-(piperazin-1-yl)phenyl)amino)ethyl)pyrrolidine-2-carboxylic acid]	> 5000	1000 to 10000	C (C represents <1 cm/ss×10^−6)	> 20000
Cc1nc(N2C[C@@H](CC(=O)Nc3ccc(-c4ccc(O)nc4)cc3)C[C@H]2C(=O)O)c2oc3ccccc3c2n1 [Compound 47, (28.4R)-4-(2-((4-(6-hydroxypyridin-3-yl)phenyl)amino)-2-oxoethyl)-1-(2-methylbenzofuro[3,2-d]pyrimidin-4-yl)pyrrolidine-2-carboxylic acid]	1000 to 5000	100 to 200		
